# Entries after “also recorded” stand apart in the source; their conditions may differ.
# Assays:
# [1] = test system: glucocorticoid receptor; assay: PCR based screening of glucocorticoid receptor knockout in hematopoietic cells; format: cell-based; settings: T cells and NK cells; CRISPR-CAS9; FIG. 3
# Text: To produce steroid-resistant immune cells, the CRISPR-CAS9 system was used to knockout glucocorticoid receptor in hematopoietic cells using gRNA SEQ ID NOs:1-2.
# [2] = test system: Raji leukemic B cells; assay: Luciferase-expressing Raji NSG mouse model, in vivo bioluminescence imaging and survival; settings: effect of IL-15 in the construct
# Text: To determine the anti-leukemic effect of the CAR-transduced NK cells, they were infused into a “humanized” mouse model of lymphoblastic leukemia, the luciferase-expressing Raji NSG mouse model. To monitor the trafficking of CAR-CD191+CB-NK cells to tumor sites in vivo, the cells were labeled with the FFLuc vector, enabling monitoring by bioluminescence imaging. Engrafted mice received […] Raji leukemic B cells (2×10^6) injected intravenously and labeled with the RLuc vector to monitor tumor growth. Six to 10 days after tumor engraftment, mice were infused intravenously with 2×10^7 expanded CB-NK cells that were unmodified or CD19-CD28-zeta-2A-IL15 CB-NK cells labeled with FFLuc. All imaging was performed once a week for 3 weeks. Four groups of animals (n=10 per group) were studied, and the spleens, blood and lymph nodes of the mice were collected after they were euthanized.
# [3] = test system: TGFβ-RII; assay: CRISPR/CAS9 knockout of TGFβ-RII in CAR NK cells; format: cell-based; settings: Cas9 plus gRNA targeting Exon 3; FIG. 6A
# Method: Next, CRISPR-CAS9 was used to knockout TGFβ in CAR NK cells to render CAR NK cells resistant to the immunosuppressive effect of exogenous TGFβ. […] Wild type and TGF-β-RII knockout NK cells were treated with 10 ng/ml of recombinant TGF-β for 48 hrs and their response to K562 targets was assessed. […] TGFβ-RII knockout by CRISPR/CAS9 technology was also found to abrogate downstream Smad-2/3 phosphorylation in response to 10n g/ml of recombinant TGF-β compared to NK cells treated with CAS9 alone (FIG. 6C). Thus, CRISPR-CAS9-mediated knockout of TGFβ-RII renders NK cells resistant to TGFβ.
# [4] = test system: iC9/CS1/IL15+NK cells; assay: Inducible caspase-9 suicide gene test, annexin-V-7AAD staining; format: cell-based; settings: 10 nM CID AP20187 added to cultures
# Method: Because of concerns over autonomous, uncontrolled NK-cell growth due to autocrine production of IL-15, a suicide gene based on the inducible caspase-9 (IC9) gene was incorporated into the construct. To test the inducible caspase-9 suicide gene that was incorporated into the retroviral vector, 10 nM of CID AP20187 was added to cultures of iC9/CS1/IL15+NK cells. The AP20187 induced apoptosis/necrosis of transgenic cells within 4 hours as assessed by annexin-V-7AAD staining.
compound,measurement,setting,value
"gRNA SEQ ID NOs:1-2: guide RNAs Ex3 NR3C1 sG1 and sG2 used with CAS9 to knock out glucocorticoid receptor (guide 1 TGCTGTTGAGGAGCTGGA; guide 2 AGCACACCAGGCAGAGTT; used with Cas9, further chemistry not given here)",glucocorticoid receptor knockout by PCR based screening,[1],efficient knockdown
IL-15: interleukin-15 co-expressed from the CAR construct in NK cells,NK-CAR mediated killing of tumor,[2]; FIG. 2A,enhances; also recorded: increase
same,survival,[2]; FIG. 2B,prolong survival
"gRNA SEQ ID NOs:3-4: guide RNAs EX3 TGFBR2 sG1 and sG2 used with Cas9 to knock out TGFβ-RII (guide 1 CGGCTGAGGAGCGGAAGA; guide 2 TGGAGGTGAGCAATCCCC; used with Cas9, further chemistry not given here)",knockout of TGFβ-RII,[3],Successful knockout
CC[C@H](C(=O)N1CCCC[C@H]1C(=O)O[C@H](CCc1ccc(OC)c(OC)c1)c1cccc(OCC(=O)NCC(CNC(=O)COc2cccc([C@@H](CCc3ccc(OC)c(OC)c3)OC(=O)[C@@H]3CCCCN3C(=O)[C@@H](CC)c3cc(OC)c(OC)c(OC)c3)c2)CN(C)C)c1)c1cc(OC)c(OC)c(OC)c1 [AP20187],time to apoptosis/necrosis of transgenic cells,[4],≤ 4 h

# Reference: patent publication US11344578B2, “Immune cells expressing engineered antigen receptors” (Board of Regents, The University of Texas System, priority 2017, dated 2022)
